Data published in patent publication US11236086B2, “Substituted pyrrolopyridines as inhibitors of activin receptor-like kinase” (BLUEPRINT MEDICINES CORPORATION, priority 2017, dated 2022).

Target: T1, ALK2R206H (mutant ALK2, N-terminally tagged with GST) (Homo sapiens, UniProt Q04771, R206H)
T1 construct: purchased Carna Bioscience or ThermoFisher 09-148 or PV6232
T1 sequence (Q04771 21-509 R206H): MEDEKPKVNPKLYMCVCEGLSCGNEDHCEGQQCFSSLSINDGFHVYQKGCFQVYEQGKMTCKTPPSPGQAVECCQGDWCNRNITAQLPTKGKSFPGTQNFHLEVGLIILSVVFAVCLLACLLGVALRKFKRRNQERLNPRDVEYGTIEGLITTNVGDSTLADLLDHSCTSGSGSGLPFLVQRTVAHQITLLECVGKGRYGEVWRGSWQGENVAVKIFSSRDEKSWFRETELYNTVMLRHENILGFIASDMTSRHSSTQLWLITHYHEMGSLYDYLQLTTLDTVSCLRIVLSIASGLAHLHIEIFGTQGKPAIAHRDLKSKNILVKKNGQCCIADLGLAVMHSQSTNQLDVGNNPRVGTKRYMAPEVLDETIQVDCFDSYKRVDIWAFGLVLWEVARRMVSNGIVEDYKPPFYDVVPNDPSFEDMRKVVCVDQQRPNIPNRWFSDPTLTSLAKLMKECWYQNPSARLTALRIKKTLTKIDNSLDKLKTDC
Assay: ALK binding assay (LANTHASCREEN TR-FRET competitive binding, displacement of Kinase Tracer 178)
Settings: read-out: Binding Assay (IC50 class)
Summary of the method: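 Competitive displacement of Kinase Tracer 178 (50 nM) from N-terminally GST-tagged mutant ALK2 R206H (2-5 nM) by compound, detected by TR-FRET with Eu-anti-GST antibody (4-10 nM). 30 min room temperature incubation, 1% DMSO final; normalized signal fitted to 4-parameter log dose response for IC50.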

Row | IC50 | Compound
1 | ≤ 0.01 µM | CS(=O)(=O)c1ccc(-c2cc3c(N4CCN(C(=O)C5CC5)CC4)ccnc3[nH]2)cc1 [Compound 307]
2 | ≤ 0.01 µM | Cn1cnc(-c2[nH]c3nccc(N4CCN(C(=O)OCC(F)F)CC4)c3c2C#N)c1 [Compound 257]
3 | ≤ 0.01 µM | CC(C)c1csc(-c2cc3c(N4CCN(C(=O)OC5COC5)CC4)ccnc3[nH]2)n1 [Compound 317]
4 | ≤ 0.01 µM | Cn1cc(-c2[nH]c3nccc(N4CCN(C(=O)OC5CCC5)CC4)c3c2C#N)cn1 [Compound 200]
5 | ≤ 0.01 µM | O=C(C1CC1)N1CCN(c2ccnc3[nH]c(-c4ccc(C5CCCOC5)cc4)cc23)CC1 (stereo not drawn) [Compound 328]
6 | ≤ 0.01 µM | O=C(OC1COC1)N1CCN(c2ccnc3[nH]c(-c4cn(C5COC5)cn4)cc23)CC1 [Compound 301]
7 | ≤ 0.01 µM | CCOC(=O)N1CCN(c2ccnc3[nH]c(-c4cnn(C)c4)c(CO)c23)CC1 [Compound 111]
8 | ≤ 0.01 µM | CC(C)N1CCC(C)(c2ccc(-c3cc4c(N5CCN(C(=O)OC6COC6)CC5)ccnc4[nH]3)cc2)CC1 [Compound 473]
9 | ≤ 0.01 µM | CN1CCN(c2ccc(-c3cc4c(N5CCN(C(=O)C6CC6)CC5)ccnc4[nH]3)cc2)CC1 [Compound 380]
10 | ≤ 0.01 µM | Cc1nn(C(C)C)cc1-c1cc2c(N3CCN(C(=O)[C@H]4CC[C@H](C#N)CC4)CC3)ccnc2[nH]1 [Compound 422]
11 | ≤ 0.01 µM | CN(C)C(=O)COc1ccc(-c2cc3c(N4CCN(C(=O)C5CC5)CC4)ccnc3[nH]2)cc1 [Compound 388]
12 | ≤ 0.01 µM | N#Cc1c(-c2nc3c(s2)COCC3)[nH]c2nccc(N3CCN(C(=O)OCC(F)F)CC3)c12 [Compound 440]
13 | ≤ 0.01 µM | O=C(OC1COC1)N1CCN(c2ccnc3[nH]c(-c4cn5c(n4)CCC5)cc23)CC1 [Compound 218]
14 | ≤ 0.01 µM | O=C(OC1COC1)N1CCN(c2ccnc3[nH]c(-c4csc(C(F)(F)F)n4)cc23)CC1 [Compound 408]
15 | ≤ 0.01 µM | CCOC(=O)N1CCN(c2ccnc3[nH]c(-c4cnn(C)c4C#N)cc23)CC1 [Compound 70]
16 | ≤ 0.01 µM | Cn1cc(-c2cc3c(N4CCN(C(=O)OC5COC5)CC4)ccnc3[nH]2)c(Cl)n1 [Compound 277]
17 | ≤ 0.01 µM | Cc1nc(-c2[nH]c3nccc(N4CCN(C(=O)OC5COC5)CC4)c3c2Cl)cs1 [Compound 344]
18 | ≤ 0.01 µM | Cn1cnc(-c2[nH]c3nccc(N4CCN(C(=O)OC5CC5)CC4)c3c2C#N)c1 [Compound 130]
19 | ≤ 0.01 µM | C[C@@H](F)COC(=O)N1CCN(c2ccnc3[nH]c(-c4cnn(C)c4)cc23)CC1 [Compound 118]
20 | ≤ 0.01 µM | Cc1nc(-c2cc3c(N4CCN(C(=O)OC5CC5)CC4)ccnc3[nH]2)cs1 [Compound 109]
21 | ≤ 0.01 µM | O=C(OC1COC1)N1CCN(c2ccnc3[nH]c(-c4cn([C@@H]5CCOC5)cn4)cc23)CC1 [Compound 358]
22 | ≤ 0.01 µM | Cc1cc(-c2cc3c(N4CCN(C(=O)OC5COC5)CC4)ccnc3[nH]2)sn1 [Compound 171]
23 | ≤ 0.01 µM | Cc1nc(-c2[nH]c3nccc(N4CCN(C(=O)OCC(F)F)CC4)c3c2C#N)cn1C [Compound 321]
24 | ≤ 0.01 µM | Cn1cc(-c2cc3c(N4CCN(C(=O)O[C@H]5CCOC5)CC4)ccnc3[nH]2)cn1 [Compound 150]
25 | ≤ 0.01 µM | CN1CCN(c2ccc(-c3cc4c(N5CCN(C(=O)C6CC6)CC5)ccnc4[nH]3)cn2)CC1 [Compound 382]
26 | ≤ 0.01 µM | CCS(=O)(=O)c1ccc(-c2cc3c(N4CCN(C(=O)OC5COC5)CC4)ccnc3[nH]2)cc1 [Compound 436]
27 | ≤ 0.01 µM | CCOC(=O)N1CCN(c2ccnc3[nH]c(-c4cnn(S(C)(=O)=O)c4)cc23)CC1 [Compound 281]

Target: T2, human ALK2 R206H (Homo sapiens, UniProt Q04771, R206H)
T2 construct: expressed in transfected cells; host or cells: HEK293 (ATCC CRL1573), lentivirus transduction, blasticidin selection
T2 sequence (Q04771 21-509 R206H): T1 sequence (Q04771 21-509 R206H)
Assay: Cell-based ALK2-R206H cell activity assay (Smad1-Ser463/Ser465 phosphorylation by AlphaLISA in HEK293-ALK2-R206H cells)
Settings: phospho-Smad1 AlphaLISA, read-out: Cell Line (Cell Assay, IC50 class)
Summary of the method: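 IC50 comes from a 10-point curve, scaled between DMSO and 1 μM LDN193189 controls, of lysate phospho-Smad1 (Ser463/465) measured by AlphaLISA. Compounds (top 10 μM or 1 μM, 3-fold steps, duplicates) were given 2-3 h to serum-starved HEK293 cells that stably express FLAG-tagged human ALK2 R206H.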

Row | IC50 | Compound
28 | 0.1 to 0.5 µM | CS(=O)(=O)c1ccc(-c2cc3c(N4CCN(C(=O)C5CC5)CC4)ccnc3[nH]2)cc1 [Compound 307]
29 | ≤ 0.1 µM | Cn1cnc(-c2[nH]c3nccc(N4CCN(C(=O)OCC(F)F)CC4)c3c2C#N)c1 [Compound 257]
30 | 0.1 to 0.5 µM | CC(C)c1csc(-c2cc3c(N4CCN(C(=O)OC5COC5)CC4)ccnc3[nH]2)n1 [Compound 317]
31 | ≤ 0.1 µM | Cn1cc(-c2[nH]c3nccc(N4CCN(C(=O)OC5CCC5)CC4)c3c2C#N)cn1 [Compound 200]
32 | ≤ 0.1 µM | O=C(C1CC1)N1CCN(c2ccnc3[nH]c(-c4ccc(C5CCCOC5)cc4)cc23)CC1 (stereo not drawn) [Compound 328]
33 | 0.1 to 0.5 µM | O=C(OC1COC1)N1CCN(c2ccnc3[nH]c(-c4cn(C5COC5)cn4)cc23)CC1 [Compound 301]
34 | 0.1 to 0.5 µM | CCOC(=O)N1CCN(c2ccnc3[nH]c(-c4cnn(C)c4)c(CO)c23)CC1 [Compound 111]
35 | ≤ 0.1 µM | CC(C)N1CCC(C)(c2ccc(-c3cc4c(N5CCN(C(=O)OC6COC6)CC5)ccnc4[nH]3)cc2)CC1 [Compound 473]
36 | ≤ 0.1 µM | CN1CCN(c2ccc(-c3cc4c(N5CCN(C(=O)C6CC6)CC5)ccnc4[nH]3)cc2)CC1 [Compound 380]
37 | ≤ 0.1 µM | Cc1nn(C(C)C)cc1-c1cc2c(N3CCN(C(=O)[C@H]4CC[C@H](C#N)CC4)CC3)ccnc2[nH]1 [Compound 422]
38 | 0.1 to 0.5 µM | CN(C)C(=O)COc1ccc(-c2cc3c(N4CCN(C(=O)C5CC5)CC4)ccnc3[nH]2)cc1 [Compound 388]
39 | ≤ 0.1 µM | N#Cc1c(-c2nc3c(s2)COCC3)[nH]c2nccc(N3CCN(C(=O)OCC(F)F)CC3)c12 [Compound 440]
40 | ≤ 0.1 µM | O=C(OC1COC1)N1CCN(c2ccnc3[nH]c(-c4cn5c(n4)CCC5)cc23)CC1 [Compound 218]
41 | 0.1 to 0.5 µM | O=C(OC1COC1)N1CCN(c2ccnc3[nH]c(-c4csc(C(F)(F)F)n4)cc23)CC1 [Compound 408]
42 | ≤ 0.1 µM | CCOC(=O)N1CCN(c2ccnc3[nH]c(-c4cnn(C)c4C#N)cc23)CC1 [Compound 70]
43 | ≤ 0.1 µM | Cn1cc(-c2cc3c(N4CCN(C(=O)OC5COC5)CC4)ccnc3[nH]2)c(Cl)n1 [Compound 277]
44 | ≤ 0.1 µM | Cc1nc(-c2[nH]c3nccc(N4CCN(C(=O)OC5COC5)CC4)c3c2Cl)cs1 [Compound 344]
45 | ≤ 0.1 µM | Cn1cnc(-c2[nH]c3nccc(N4CCN(C(=O)OC5CC5)CC4)c3c2C#N)c1 [Compound 130]
46 | 0.1 to 0.5 µM | C[C@@H](F)COC(=O)N1CCN(c2ccnc3[nH]c(-c4cnn(C)c4)cc23)CC1 [Compound 118]
47 | ≤ 0.1 µM | Cc1nc(-c2cc3c(N4CCN(C(=O)OC5CC5)CC4)ccnc3[nH]2)cs1 [Compound 109]
48 | 0.1 to 0.5 µM | O=C(OC1COC1)N1CCN(c2ccnc3[nH]c(-c4cn([C@@H]5CCOC5)cn4)cc23)CC1 [Compound 358]
49 | 0.1 to 0.5 µM | Cc1cc(-c2cc3c(N4CCN(C(=O)OC5COC5)CC4)ccnc3[nH]2)sn1 [Compound 171]
50 | ≤ 0.1 µM | Cc1nc(-c2[nH]c3nccc(N4CCN(C(=O)OCC(F)F)CC4)c3c2C#N)cn1C [Compound 321]
51 | 0.1 to 0.5 µM | Cn1cc(-c2cc3c(N4CCN(C(=O)O[C@H]5CCOC5)CC4)ccnc3[nH]2)cn1 [Compound 150]
52 | ≤ 0.1 µM | CN1CCN(c2ccc(-c3cc4c(N5CCN(C(=O)C6CC6)CC5)ccnc4[nH]3)cn2)CC1 [Compound 382]
53 | ≤ 0.1 µM | CCS(=O)(=O)c1ccc(-c2cc3c(N4CCN(C(=O)OC5COC5)CC4)ccnc3[nH]2)cc1 [Compound 436]
54 | 0.1 to 0.5 µM | CCOC(=O)N1CCN(c2ccnc3[nH]c(-c4cnn(S(C)(=O)=O)c4)cc23)CC1 [Compound 281]
